These results are taken from patent publication US9855242B2, “Composition for an immunomodulation” (Eberhard Karls Universität Tübingen Medizinische Fakultät, priority 2013, dated 2018).

Data set [1] concerns Human NK cells. The data set can be described thus: CellTiterBlue viability measurement on human NK cells. In kind it is cell-based. As to conditions: 48 hours treatment; 6.25, 12.5, 25 or 50 μM of 6-PN or 8-PN, SAHA in low concentrations; versus untreated control; FIG. 2. On the procedure: Human NK cells were treated for 48 hours with 6.25, 12.5, 25 or 50 μM of 6-PN or 8-PN. In the following a viability measurement was carried out (CellTiterBlue Viability Asasy, Promega, Madison, United States of America). The clinically used and established HDACi SAHA (Vorinostat) was used in low concentrations as a reference die for both natural HDACi 6-PN and 8-PN. Shown are the mean values with a standard deviation from three independent experiments with expanded NK cells from three healthy human donors. The horizontal continuous line visualizes the value of the untreated control; a decrease of the fluorescence signal means a reduction of the viability.

Another data set addresses MRP1 (Homo sapiens, UniProt P33527). As to conditions: cited from earlier work.
Data set [2] relates to PBMCs of healthy donors. The data set can be described thus: Metabolic activity of PBMCs, Promega CellTiter-Blue Assay. As to conditions: one time 12.5 μM or 25 μM; after 48 hours; FIG. 8A. In kind it is cell-based, human. The procedure: (§1) The result is shown in the FIG. 8: A PBMCs of two healthy donors were one time treated with 12.5 μM or 25 μM of 6-PN or 8-PN and examined after 48 hours. B NKL cells were one time treated with 12.5 μM or 25 μM of 6-PN or 8-PN and examined after 48 h. In both immune cell populations and in both treatments an increase of a metabolic activity can be detected; shown is the average value +/−SD.
Background: Alamar Blue is a resazurin reagent that responds to reducing activity.

The test system of the next data set is human hepG2 tumor cells. The data set is described as follows: NK activity on HepG2 tumor cells by realtime cell monitoring (xCELLigence impedance). In kind it is cell-based. The procedure:
In a further experiment the NK activity on human hepG2 tumor cells by means of realtime cell monitoring (Roche Applied Sciences xCELLigence SP-System, Mannheim, Germany) was analyzed. […] The cellular impedance of the adherent tumor cells were measured as parameters for the cell status (cell number, viability, morphology, adhesion). As a positive control for the induction of cell death Triton X-100 was used. Three independent experiments with expanded NK cells from three healthy human donors were carried out. Shown are the average values with standard deviation of one exemplary experiment. The HepG2 tumor cells (target) were incubated at the start of the treatment (24 hours) with 25 μM of 6-PN or 8-PN or with NK cells (effector) (effector to target ratio (E:T)=1.25:1 or 2.5:1) or with the combination of HDACi and NK cells. The normalization happened at the start of the treatment and a decrease of the impedance (normalized cell index) means a reduction of the cell viability or the cell status, respectively.

Data set [3] deals with angiogenesis induced by the basic fibroblast growth factor and the vascular endothelial growth factor. As to conditions: three dimensional collagen gel; bFGF and VEGF induced; cited from earlier work.
A further data set has as its system PC-3. As to conditions: in vitro; cited from earlier work.
Data set [4] has as its system melanoma tumor cells with adherent immune cells. The data set is described as follows: Primary patient material: melanoma tumor cells with adherent immune cells, tumor cell count. In kind it is cell-based, human. The note with it: 12.5 μM or 25 μM; 48, 72, and 96 hours after the start of the treatment; **P<0.01; FIG. 5.
In data set [5] the test system is PBMCs of healthy donors. The data set can be described thus: PBMC viability with automated cell counting device (NC-250). In kind it is cell-based, human. As to conditions: one time 12.5 μM or 25 μM; daily over 336 hours; FIG. 7. On the procedure: The result is shown in the FIG. 7: PBMCs of three healthy donors were one time treated with 12.5 μM or 25 μM of 6-PN or 8-PN and subsequently on a daily basis at independent points in time examined by means of a nucleo counter NC-250 cell counting device with respect to viability over a time period of 336 hours; shown is the average value +/−SD.

The next data set deals with Hep3B. The data set can be described thus: NK activity on a further tumor cell line by realtime cell monitoring. In kind it is cell-based. As to conditions: compared with the HepG2 result.
For another data set, the system named is MCF7 cells. The note with it: cited from earlier work.
Data set [6] relates to PI (3) K/Akt signaling pathway. The note with it: MCF-7 cells in vitro; cited from earlier work.
Data set [7] concerns NK cells of healthy donors. The data set is described as follows: NK cell viability with automated cell counting device (NC-250). In kind it is cell-based, human. The note with it: one time 12.5 μM or 25 μM; daily over 336 h; FIG. 6. The procedure:
The examination therefore is independent from the experimentator. NK cells of two healthy donors were one time treated with 12.5 μM or 25 μM of 6-PN or 8-PN, respectively, and subsequently two independent points in time on a daily basis examined by means of a nucleo counter NC-250 cell counting device with respect to viability over a time period of 336 h; shown is the average value +/−SD.

The target in the next data set is P glycoprotein (Homo sapiens, UniProt P08183). As to conditions: cited from earlier work.
In data set [8] the test system is estrogen receptors of the uterus of rats. The note with it: cited from earlier work.
For data set [9], the system named is histone deacetylases (HDACs) of classes I, II, and IV. The note with it: cited from earlier work.
The subject of data set [10] is Human NK cells. The data set is described as follows: Overall survival of NK cells, trypan blue staining and daily microscopic counting. In kind it is cell-based. The note with it: one time treatment with 6.25, 12.5, 25 or 50 μM; versus untreated control and SAHA treated cells; FIG. 3. On the procedure:
Human NK cells were treated with 6.25, 12.5, 25 or 50 μM of 6-PN or 8-PN. Subsequently via a tryptan blue staining and a daily microscopic counting in standardized C chip counter chambers the overall survival of NK cells was measured. As a reference dye again the HDACi SAHA (Vorinostat) was used. Shown is the average value with standard deviation from three independent experiments with expanded NK cells from three healthy human donors. The left arrow visualizes <10% of living cells in the SAHA treatment group; the right arrow visualizes <10% of living cells in the untreated control group.

The subject of a further data set is DU145. As to conditions: in vitro; cited from earlier work.
The test system of the next data set is NK cell line NKL. The data set can be described thus: Metabolic activity of NKL cells, Promega CellTiter-Blue Assay. In kind it is cell-based. As to conditions: one time 12.5 μM or 25 μM; after 48 h; FIG. 8B. On the procedure:
as §1

In another data set the test system is angiogenesis. As to conditions: chorioallantois membrane assays; cited from earlier work.

Structures are written as SMILES.

P glycoprotein, sequence (P08183 whole entry): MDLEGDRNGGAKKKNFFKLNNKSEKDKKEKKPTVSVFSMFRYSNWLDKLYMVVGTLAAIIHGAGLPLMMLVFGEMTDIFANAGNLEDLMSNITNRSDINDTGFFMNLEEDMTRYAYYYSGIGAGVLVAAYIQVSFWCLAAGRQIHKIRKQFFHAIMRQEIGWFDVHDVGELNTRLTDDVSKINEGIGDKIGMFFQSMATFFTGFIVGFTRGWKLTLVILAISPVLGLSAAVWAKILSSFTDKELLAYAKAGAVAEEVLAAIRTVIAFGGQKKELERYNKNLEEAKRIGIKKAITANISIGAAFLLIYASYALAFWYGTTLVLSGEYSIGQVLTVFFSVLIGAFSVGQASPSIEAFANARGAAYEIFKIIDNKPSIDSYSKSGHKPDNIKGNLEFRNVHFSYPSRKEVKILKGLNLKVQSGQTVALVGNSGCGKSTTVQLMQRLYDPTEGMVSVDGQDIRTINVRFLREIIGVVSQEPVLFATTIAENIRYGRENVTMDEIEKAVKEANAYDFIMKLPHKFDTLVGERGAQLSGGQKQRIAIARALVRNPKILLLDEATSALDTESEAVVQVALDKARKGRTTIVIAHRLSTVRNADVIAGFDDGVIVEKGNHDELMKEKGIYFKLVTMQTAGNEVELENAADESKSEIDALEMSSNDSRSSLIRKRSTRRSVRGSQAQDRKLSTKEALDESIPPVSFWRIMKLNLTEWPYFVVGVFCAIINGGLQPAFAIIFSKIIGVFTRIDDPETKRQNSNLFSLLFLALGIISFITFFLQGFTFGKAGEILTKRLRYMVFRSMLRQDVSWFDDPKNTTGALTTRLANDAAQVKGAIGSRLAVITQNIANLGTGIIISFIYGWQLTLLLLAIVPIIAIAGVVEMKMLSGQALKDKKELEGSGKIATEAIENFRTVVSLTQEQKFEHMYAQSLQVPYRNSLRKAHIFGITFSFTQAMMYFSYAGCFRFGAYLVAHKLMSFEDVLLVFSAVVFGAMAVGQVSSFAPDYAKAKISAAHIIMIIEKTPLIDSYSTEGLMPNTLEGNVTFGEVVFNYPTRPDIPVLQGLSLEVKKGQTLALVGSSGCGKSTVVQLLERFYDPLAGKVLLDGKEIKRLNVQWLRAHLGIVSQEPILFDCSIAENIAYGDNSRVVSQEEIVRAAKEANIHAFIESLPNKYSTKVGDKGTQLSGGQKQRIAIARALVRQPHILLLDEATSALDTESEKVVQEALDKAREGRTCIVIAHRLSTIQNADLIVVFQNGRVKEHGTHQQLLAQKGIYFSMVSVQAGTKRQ
MRP1, sequence (P33527 whole entry): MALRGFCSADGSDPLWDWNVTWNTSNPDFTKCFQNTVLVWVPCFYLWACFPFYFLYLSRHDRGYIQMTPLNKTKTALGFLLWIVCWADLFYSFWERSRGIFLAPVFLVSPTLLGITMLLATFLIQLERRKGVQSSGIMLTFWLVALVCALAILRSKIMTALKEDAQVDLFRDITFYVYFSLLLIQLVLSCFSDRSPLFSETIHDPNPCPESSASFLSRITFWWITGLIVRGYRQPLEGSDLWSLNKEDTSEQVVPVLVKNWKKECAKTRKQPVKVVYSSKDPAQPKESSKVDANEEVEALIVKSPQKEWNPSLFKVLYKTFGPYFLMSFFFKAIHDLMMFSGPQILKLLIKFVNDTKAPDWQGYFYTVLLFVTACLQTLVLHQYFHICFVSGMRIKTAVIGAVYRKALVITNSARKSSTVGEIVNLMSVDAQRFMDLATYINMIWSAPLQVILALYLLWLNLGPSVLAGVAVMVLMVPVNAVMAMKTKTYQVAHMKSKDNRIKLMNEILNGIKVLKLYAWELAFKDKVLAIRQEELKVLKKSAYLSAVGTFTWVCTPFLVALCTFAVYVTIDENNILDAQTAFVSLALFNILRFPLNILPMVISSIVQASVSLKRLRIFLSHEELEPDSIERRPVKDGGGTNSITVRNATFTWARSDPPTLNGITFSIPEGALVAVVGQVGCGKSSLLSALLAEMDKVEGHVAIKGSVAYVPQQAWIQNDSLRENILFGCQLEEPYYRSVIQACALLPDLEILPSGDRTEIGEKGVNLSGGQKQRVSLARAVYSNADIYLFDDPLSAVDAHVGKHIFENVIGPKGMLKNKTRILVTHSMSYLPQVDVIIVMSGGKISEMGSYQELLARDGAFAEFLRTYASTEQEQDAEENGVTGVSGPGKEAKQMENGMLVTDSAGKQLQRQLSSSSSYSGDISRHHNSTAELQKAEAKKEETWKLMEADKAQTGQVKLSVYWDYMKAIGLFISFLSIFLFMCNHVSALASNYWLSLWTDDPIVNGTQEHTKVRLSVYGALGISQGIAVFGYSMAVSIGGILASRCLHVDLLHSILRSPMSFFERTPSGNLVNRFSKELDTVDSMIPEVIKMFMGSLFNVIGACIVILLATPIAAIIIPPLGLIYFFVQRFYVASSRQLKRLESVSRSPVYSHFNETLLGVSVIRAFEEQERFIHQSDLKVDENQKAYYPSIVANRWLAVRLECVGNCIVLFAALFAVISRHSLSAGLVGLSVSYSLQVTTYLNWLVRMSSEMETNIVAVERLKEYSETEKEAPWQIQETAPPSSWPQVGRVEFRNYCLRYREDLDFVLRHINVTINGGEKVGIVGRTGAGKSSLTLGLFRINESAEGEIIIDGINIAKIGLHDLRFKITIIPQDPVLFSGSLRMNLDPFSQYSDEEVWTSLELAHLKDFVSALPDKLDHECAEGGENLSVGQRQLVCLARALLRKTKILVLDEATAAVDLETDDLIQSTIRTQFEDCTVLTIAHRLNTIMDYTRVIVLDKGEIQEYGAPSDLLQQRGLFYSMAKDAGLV

Take `O=C(CCCCCCC(=O)Nc1ccccc1)NO` [SAHA, reference compound]: the “viability of human NK cells” value with Human NK cells [1] is recorded as “significant decrease of the viability”.

On to `CC(C)=CCc1c(O)cc(O)c2c1OC(c1ccc(O)cc1)CC2=O` (stereo not drawn) [8-PN, 5,7-dihydroxy-2-(4-hydroxy-phenyl)-8-(3-methyl-but-2-enyl)-chroman-4-one], for which the “inhibition of MRP1” value on MRP1 was “inhibition”. The “metabolic activity of PBMCs” value in the data set with PBMCs of healthy donors [2] is “increase the metabolic activity”. Moreover, the “activity of the human NK cells over human tumor cells (normalized cell index)” value in the data set with human hepG2 tumor cells (25 μM with NK cells, E:T 1.25:1 or 2.5:1, FIG. 4) is on record as “increased activity of the human NK cells”. Also, the “sensitivity of HepG2 tumor cells against the compound” value in the data set on human hepG2 tumor cells (compound without NK cells) is given as “low sensitivity”. Further, the angiogenesis in vitro result in data set [3] was “inhibits the angiogenesis”. Also, the “viability of human NK cells” value with Human NK cells [1] was “in parts significant increase of the viability”. Moreover, the “antiproliferative effects on PC-3” value in the data set with PC-3 was “antiproliferative effects”. Further, the “quantitative evaluation of the tumor cells (melanoma cells)” value in [4] is recorded as “significant decrease of the melanoma cells”. For the same molecule, in the data set on PBMCs of healthy donors [5], the “viability of PBMCs of healthy donors” value is reported as “increase/extend viability”. In the data set on Hep3B, the “activity of NK cells on further tumor cell line” value is on record as “equivalent results”. In the data set on MCF7 cells, the “apoptosis in MCF7 cells” value was “induces furthermore the apoptosis”. Moreover, the “activation of the PI (3) K/Akt signaling pathway” value in data set [6] is listed as “directly inhibits the activation”. The “viability of NK cells of healthy donors” value in data set [7] is given as “increase/extend the viability”. Besides, at P glycoprotein, the “inhibition of the P glycoprotein” value is “inhibition”. Besides, the “binding affinity for estrogen receptors” value in [8] was “strong binding affinity”. For the same molecule, in data set [9], the “inhibition of histone deacetylases (HDACs) of classes I, II, and IV” value is given as “distinct inhibitors”. The “survival rate of the NK cells” value in the data set on Human NK cells [10] is “significantly increased”. In addition, the “antiproliferative effects on DU145” value in the data set on DU145 is listed as “antiproliferative effects”. Also, in the data set on NK cell line NKL, the “metabolic activity of NKL cells” value is “increase the metabolic activity”. The angiogenesis in vivo result in the data set with angiogenesis is recorded as “inhibits the angiogenesis”.
